Assay results taken from PubChem BioAssay AID2765 (Broad Institute, 2010).
Calls of active or inactive are those of the source.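 How the source made its calls: active means half-maximal concentration for the rise in caspase light signal at or below ten times the top tested dose; inconclusive means flat fit between 30% and 70% activity, or unreliable curve fit; inactive means the rest.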

Tested on: MEF A1-2A-BIM cells, caspase 3/7 luminescence, 3 h
Experiment: inducers of caspase signal in A1-dependent MEFs – cell-based, luminescence, retest, A1 inhibitor project, dose response (AID 2765)

SMILES | EC50
Cc1ccc(NC(=O)COC(=O)CCc2c(C)nc3ncnn3c2C)cc1C | > 35 µM (inactive)
CCOc1ccccc1NC(=O)CN1C(=O)CSC(C)C1=O (stereo not given) | > 35 µM (inactive)
O=C(COc1ccc(/C=N/NC(=O)c2cc3ccccc3o2)cc1Cl)Nc1ccccc1 | 6.55 µM
CC1COc2ccccc2N1C(=O)c1ccc(Cl)cc1 (stereo not given) | > 35 µM (inactive)
Cc1ccc(S(=O)(=O)NCC(=O)OC2CCOC2=O)cc1 (stereo not given) | > 35 µM (inactive)
CCC(C)[C@@H](C(=O)NCC1CCC(C(=O)O)CC1)n1nnc2ccccc2c1=O (stereo not given in full) | > 35 µM (inactive)
CC(C)CN(CC(C)C)C(=O)c1cc2c(=O)n3ccccc3nc2s1 | > 35 µM (inactive)
CCN(CC)CCCN=C(C)c1c(O)n(-c2ccccc2)c(=O)[nH]c1=O | > 35 µM (inactive)
COc1ccccc1CN1CC(C(=O)NCCN2CCNC2=O)CCC1=O (stereo not given) | > 35 µM (inactive)
CC(C)(C)c1ccc(C(=O)Nc2ccc(O)c3c(=O)cc(-c4cccc(Cl)c4)oc23)cc1 | > 35 µM (inactive)
CC1CCCCC12NC(=O)N(CC(=O)c1ccc(Cl)s1)C2=O (stereo not given) | > 35 µM (inactive)
COc1ccccc1N1CCN(C(c2ccccc2)c2nnnn2CCc2ccccc2)CC1 (stereo not given) | > 35 µM (inactive)
O=C(Nc1ccc(Br)cn1)c1cccc2c1-c1ccccc1C2=O | > 35 µM (inactive)
Cc1cc(C)cc(NC(=O)CCN2CCCC2)c1 | > 35 µM (inactive)
CS(=O)(=O)Nc1ccc(C2=NN(S(C)(=O)=O)C(c3ccccc3)C2)cc1 (stereo not given) | > 35 µM (inactive)
COc1cc2ncnc(NCc3ccc(F)cc3)c2cc1OC | > 35 µM (inactive)
CCCNC(=O)c1ccc(COc2ccc(Cl)cc2)o1 | > 35 µM (inactive)
Cc1cc(Br)c(OCc2ccc(C(=O)N/N=C/c3ccc[nH]3)cc2)c(Br)c1 | 33.8 µM
CSC(SC)=C(C#N)C(=O)c1ccccc1 | > 35 µM (inactive)
Cc1cc(-c2onc(C)c2C(=O)Nc2ccc(C(F)(F)F)cc2)no1 | > 35 µM (inactive)
COCC(=O)NC(C)c1nc2ccccc2[nH]1 (stereo not given) | > 35 µM (inactive)
Cc1cc(C)n(S(=O)(=O)c2ccc(C)c(C)c2C)n1 | > 35 µM (inactive)
Cc1cc(C)n(-c2ccc(NC(=O)C3CCN(Cc4ccc(C)o4)CC3)cc2)n1 | > 35 µM (inactive)
CCCCNC(=O)c1ccc2nc(-c3ccco3)c(-c3ccco3)nc2c1 | > 35 µM (inactive)

SMILES | EC50
COc1ccc(S(=O)(=O)N(C)C[C@H]2Oc3ccc(NC(=O)Nc4c(C)noc4C)cc3C(=O)N([C@H](C)CO)C[C@@H]2C)cc1 | > 35 µM (inactive)
O=C(COC(=O)Cc1ccccc1[N+](=O)[O-])NCc1ccc(Cl)cc1 | > 35 µM (inactive)
Cn1nnnc1Sc1ncnc2scc(-c3cccc4c3sc3ccccc34)c12 | > 35 µM (inactive)
NC(=O)CCSC(=S)N1CCOCC1 | > 35 µM (inactive)
Cc1ccc2c(C(=O)N3CCN(c4ccccc4)CC3)cc(-c3cccnc3)nc2c1C | > 35 µM (inactive)
CC(=O)OC[C@]12CC[C@H]3[C@@](C)(CC[C@H]4C(C)(C)CCC[C@]34C)[C@@H]1C[C@@H](C1=CC(=O)O[C@@H]1OC(C)=O)O2 | 4.98 µM
O=C(O)/C(=C\c1c(C(=O)O)[nH]c2cc(Cl)cc(Cl)c12)c1ccccc1 | > 35 µM (inactive)
Cc1cccc(N(C)C(=O)CCS(=O)(=O)c2cccc3nonc23)c1 | > 35 µM (inactive)
CN(c1ccc(OCC(=O)NC2CCC(O)CC2)cc1)S(=O)(=O)c1ccc(Cl)cc1 (stereo not given) | > 35 µM (inactive)
CCc1cccc(NC(=O)C2CCN(S(=O)(=O)c3ccc4c(c3)NC(=O)CO4)CC2)c1 | > 35 µM (inactive)
CN(CC(=O)Nc1ccc(F)cc1)C(=O)c1ccccc1OCc1ccc(F)cc1 | > 35 µM (inactive)
CCCNC(=O)C(Cc1ccccc1)NC(=O)Cc1ccccc1 (stereo not given) | > 35 µM (inactive)
CCS(=O)(=O)c1nc2ccccc2n1Cc1ccccn1 | > 35 µM (inactive)
O=C(c1ccccc1)N1CCN(S(=O)(=O)c2ccccc2)CC1 | > 35 µM (inactive)
CCOC(=O)C(C(=O)OCC)C(C(=O)OCC)N1CCOCC1 (stereo not given) | > 35 µM (inactive)
Cc1ccc(CSc2ncnc3c2cnn3-c2ccccc2)cc1 | > 35 µM (inactive)
COc1cc(C(=O)Nc2cc(-c3ccccc3)[nH]n2)cc(OC)c1OC | > 35 µM (inactive)
CC(c1ccccc1)n1c(CCCO)nc2ccccc21 (stereo not given) | > 35 µM (inactive)
CCOC(=O)CN1C(=O)CC(c2ccc([N+](=O)[O-])cc2)C1=O (stereo not given) | > 35 µM (inactive)
O=C(CCCCCn1c(=O)[nH]c2ccsc2c1=O)N1CCN(C2CCCCC2)CC1 | > 35 µM (inactive)
CCOC(=O)c1cc(CC)sc1NC(=O)C1CC(=O)NN1Cc1ccccc1 (stereo not given) | > 35 µM (inactive)
O=C(/C=C/c1ccc(Cl)cc1)c1ccc([N+](=O)[O-])o1 | > 35 µM (inactive)
Cc1ccc(OC(=O)C2CCN(C(=O)c3ccccc3C)CC2)c(Br)c1 | > 35 µM (inactive)
CCN(CC)C1CCN(C(=O)c2ccc(OC3CCN(CCc4ccccc4)CC3)cc2)C1 (stereo not given) | > 35 µM (inactive)

SMILES | EC50
Oc1cc2c(cc1CN1CCN(c3ncccn3)CC1)OCO2 | > 35 µM (inactive)
S=C(NCCc1ccccc1)NC1CCCCCC1 | > 35 µM (inactive)
S=C(Nc1ccccc1)N1N=C(c2cccs2)CC1c1cccs1 (stereo not given) | > 35 µM (inactive)
CCC(Sc1nc2cc3c(cc2c(=O)n1Cc1ccco1)OCO3)C(=O)Nc1cccc(OC)c1 (stereo not given) | > 35 µM (inactive)
Cc1noc(C)c1CSCC(=O)N(C)CC(=O)Nc1ccc(Cl)c(Cl)c1 | > 35 µM (inactive)
CCOC(=O)C1=C(C)N(CCCC(=O)O)C(=O)NC1c1ccccc1OS(=O)(=O)c1ccc(C)cc1 (stereo not given) | > 35 µM (inactive)
COc1ccc(-c2ccc3c(c2)S(=O)(=O)c2cccc(C(=O)NCc4cccc(OC(F)(F)F)c4)c2C3=O)cc1OC | 20.4 µM
C#CCOCCOCCOCCNc1nc(N2CCN(C(=O)[C@H](CCCCN)n3cc(CCCC)nn3)CC2)nc(N2CCN(C(=O)[C@H](CCCCN)n3cc(CCC(=O)O)nn3)CC2)n1 | > 35 µM (inactive)
O=P(C(c1c[nH]c2ccccc12)N1CCOCC1)(N1CCOCC1)N1CCOCC1 (stereo not given) | > 35 µM (inactive)
CC(=O)c1ccc(S(=O)(=O)N2CCCCC2C(=O)O)cc1 (stereo not given) | > 35 µM (inactive)
COc1ccccc1CCC(=O)Nc1ccc(S(=O)(=O)Nc2nccs2)cc1 | > 35 µM (inactive)
Cc1ccc(C#N)c(SCC(=O)Nc2nccs2)n1 | > 35 µM (inactive)
Cc1ccccc1OCCOC(=O)c1c(-c2ccccc2)noc1C | > 35 µM (inactive)
O=C(Nc1ccc(N2CCN(C(=O)c3ccco3)CC2)cc1)c1cccs1 | > 35 µM (inactive)
O=C(N/N=C\c1ccc(CN(Cc2ccc(Cl)cc2)S(=O)(=O)c2ccccc2)o1)C(=O)Nc1ccc(F)cc1 | > 35 µM (inactive)
CC(C)c1ccc(NC(=S)NNC(=O)c2cccs2)cc1 | > 35 µM (inactive)
O=C(CSc1ccc2ccccc2c1)NCCc1ccc(O)c(O)c1 | > 35 µM (inactive)
CCCN1C(=O)/C(=N\OCC(=O)NC23CC4CC(CC(C4)C2)C3)c2ccccc21 | > 35 µM (inactive)
Cc1ccc(S(=O)(=O)c2nnn3c2nc(Nc2cccc(C)c2)c2ccccc23)cc1 | > 35 µM (inactive)
CC(C)c1cccc(-c2ccc3c(c2)S(=O)(=O)c2cccc(C(=O)NC4CCCC4)c2C3=O)c1 | > 35 µM (inactive)
CCOC(=O)CSCC(=O)N1N=C(c2cccs2)CC1c1ccc(F)cc1 (stereo not given) | > 35 µM (inactive)
O=C(O)C(CCCCNS(=O)(=O)c1ccc(F)cc1)NS(=O)(=O)c1ccc(F)cc1 (stereo not given) | > 35 µM (inactive)
CCOC(=O)c1c(C)[nH]c(C)c1C(=O)CSc1nc2ccccc2n1CCOC | > 35 µM (inactive)
Cc1cccc(-n2c(Cc3ccccc3)n[nH]c2=S)c1 | > 35 µM (inactive)

SMILES | EC50
COc1ccc(OC)c(CNc2ccc([N+](=O)[O-])cc2C)c1 | > 35 µM (inactive)
CCCNC(=O)c1ccc2c(=O)c(O)c(-c3ccsc3)[nH]c2c1 | > 35 µM (inactive)
Cc1cc(Nc2ccc(Cl)cc2)n2ncnc2n1 | > 35 µM (inactive)
COc1ccc(Nc2cc3n(c(=O)n2)CCc2cc(OC)c(OC)cc2-3)c(C)c1 | > 35 µM (inactive)
CCOc1ccccc1NC(=O)Nc1cc(OC)ccc1OC | > 35 µM (inactive)
CC1CCc2c(sc3nc(C(C)(C)C)nc(N4CCN(C(=O)CCl)CC4)c23)C1 (stereo not given) | 15.4 µM
CC(C)C(OC(=O)c1cc2c(s1)CCCCC2)C(=O)NC(N)=O (stereo not given) | > 35 µM (inactive)
CCc1nnc(NC(=O)c2ccc(NC(=O)C(C)C)cc2)s1 | > 35 µM (inactive)
COc1ccc(C)cc1S(=O)(=O)n1cnc2ccccc21 | > 35 µM (inactive)
OC(Cn1cncn1)(Cn1cncn1)c1ccc(F)cc1F | > 35 µM (inactive)
Cc1c(Nc2nc3ccccc3nc2NS(=O)(=O)c2cccc(Cl)c2)c(=O)n(-c2ccccc2)n1C | > 35 µM (inactive)
COc1cc2c(c(OC)c1OC)-c1ccc(O)c(=O)cc1C(NC(C)=O)CC2 (stereo not given) | > 35 µM (inactive)
O=C(O)CCN1CCc2ccccc2C1c1ccncc1 (stereo not given) | > 35 µM (inactive)
CCn1nnc(NC(=O)Cc2ccc(Cl)cc2)n1 | > 35 µM (inactive)
Cc1cccc(NC(=S)N(Cc2cccc(Br)c2)CC2CCC(C(=O)O)CC2)c1 (stereo not given) | > 35 µM (inactive)
Cc1cc(NC(=O)COC(=O)C2=NN(c3ccccc3)C(=O)CC2)c([N+](=O)[O-])cc1C | > 35 µM (inactive)
CCN(C[C@H]1N[C@@](CC)(C(=O)OC)[C@H]2C(=O)N(Cc3ccccc3)C(=O)[C@@H]12)C(=O)c1ccc(F)cc1 | > 35 µM (inactive)
O=C(NCc1ccc(/C=N\NC(=O)C(=O)Nc2ccccc2Br)o1)C(=O)Nc1ccccc1 | > 35 µM (inactive)
CCOC(=O)c1c(C)nc2sc(C(=O)Nc3ccc(C(C)=O)cc3)c(N)c2c1-c1ccc(OC)cc1 | > 35 µM (inactive)
CN(C)C=NC(=O)c1cc(C(=O)c2ccc(Cl)cc2Cl)c[nH]1 | > 35 µM (inactive)
Cc1ccc(NC(=O)CSc2nc3ccc(Nc4nc(N5CCOCC5)nc(N5CCOCC5)n4)cc3s2)cc1 | 14.9 µM
Cc1ccc(C)c(N(C)C(=O)c2ccc3c(=O)n4c(nc3c2)CCCCC4)c1 | > 35 µM (inactive)
Cc1ccc(NC(=O)Cn2ncc(Cl)c(Cl)c2=O)cc1S(=O)(=O)N1CCCCC1 | > 35 µM (inactive)
